Legend:
Type in all cases: cell-based
Red blood cells (RBC) [1] = assay: RBC survival (cell count) after freezing/thawing or lyophilizing/rehydrating at 2.5 ml
Protocol: Red blood cells (RBC) were separated from whole blood received from the Israeli Blood Bank. The blood was centrifuged for 10 minutes at 1500 g and the plasma was discarded. […] Afterwards the supernatant was discarded, and an equal volume of cryopreservation solution selected from the solutions in Table I was added to the packed RBC. Different volumes (2.5-50 ml) of the RBC suspension were transferred to a 16-25 mm diameter glass test tube ([…], Israel). The experiment of freezing 200 ml of RBC suspension was done in a 2000 ml freezing bag (Baxter-Fenwal, USA). Samples were then either frozen and thawed in a water bath at 37° C. or lyophilized and rehydrated with double distilled water (DDW) at 37° C. Glass test tubes containing RBC were frozen in a modified MTG freezing apparatus, as described in WO 03/020874 (manufactured by IMT, Israel). The thermal gradient in the cooling unit was set to 5.5° C./mm or 10.5° C./mm or 15.5° C./mm (as detailed below) with final temperatures of -50° C., -100° C. or -150° C. […] During freezing the test tubes that contained only 2.5 ml samples were rotated at a rate of 56 rpm. Subsequent to freezing, biological material was taken from each test tube to test for cell viability. Lyophilization was performed in a commercial lyophilizer (Labconco, USA) with a condenser temperature of -82° C. for 72 hours. The biological material was is rehydrated by adding DDW to reach the sample's original volume. Frozen (but not lyophilized) material was thawed by immersion in a water bath at 37° C. for until it melted. Melting was observed visually. Cells were counted using the […] 60 cell counter (ABX, France), in accordance with the manufacturer's manual. This device provides a complete cell count (CBC) that includes parameters such as: cell number, hematocrit, mean cell volume, hemoglobin, etc. […] In these experiments the cell suspension volume was 2.5 ml.

Red blood cells (RBC) [2] = assay: Osmotic fragility of RBC; conditions: 0.9 mg/ml EGCG, 20% dextran 40 kD, 0.8% NaCl
Protocol: The control group was whole blood. Portions of each of the EGCG supplemented and control were exposed to different sodium chloride concentrations of: 0.1, 0.2, 0.3, 0.4, 0.5, 0.6, 0.7, 0.8 and 0.9% (w/v).
Free hemoglobin was measured as described above and the hemolysis percentage was calculated using Formula I. The results of this experiment are shown in FIG. 8.

Red blood cells (RBC) [3] = assay: Freeze-dried and rehydrated RBC: cell number, MCV, hemolysis; conditions: for % Hemolysis in Lyo cells / MCV, Lyo / number of Cells, Lyo: lyophilized and rehydrated
Protocol: Freezing was performed as described in Example 5A. After freezing, samples were transferred to a commercial lyophilizer (Labconco, USA). Samples were lyophilized for 72 hours, after which rehydration was performed by adding 2.4 ml double distilled water at 37° C. back to the samples. After rehydration samples were counted and mean cell volume (MCV) was measured using the Pentra 60 (ABX, France) automatic cell counter. Free hemoglobin levels were measured as described above and the hemolysis percentage was calculated using Formula I.

SMILES: O=C(O[C@@H]1Cc2c(O)cc(O)cc2O[C@@H]1c1cc(O)c(O)c(O)c1)c1cc(O)c(O)c(O)c1 [EGCG, Epigallocatechin gallate]
- RBC survival, 1B Rehydrated (Red blood cells (RBC) [1]; frozen at 1,000° C./min, lyophilized, rehydrated with DDW): 49.19%
- RBC survival, 1A Thawed (Red blood cells (RBC) [1]; frozen at 1,000° C./min, thawed, not lyophilized, percentage of total fresh cells counted): 84.53%
- RBC survival, 2A Thawed (Red blood cells (RBC) [1]; frozen at 2,000° C./min, thawed, not lyophilized): 72.92%
- hemolysis versus control (whole blood) (Red blood cells (RBC) [2]; NaCl concentrations above 0.6% (w/v)): no significant difference
- hemolysis versus control (whole blood) (Red blood cells (RBC) [2]; hypotonic environment (below 0.5% NaCl)): lower hemolysis rates
- MCV, % of lyo from fresh (Red blood cells (RBC) [3]; 1.03 mM EGCG): 85.23%
- number of Cells, % of lyo cells from fresh (Red blood cells (RBC) [3]; 1.03 mM EGCG): 67.22%
- number of Cells, Fresh (Red blood cells (RBC) [3]; 1.03 mM EGCG in 20% Dextran 40, 0.8% NaCl): 4.21 10^9/ml
- MCV, Fresh (Red blood cells (RBC) [3]; 1.03 mM EGCG): 88 μm^3
- % Hemolysis in Lyo cells (Red blood cells (RBC) [3]; 1.03 mM EGCG): 56.18%
- MCV, Lyo (Red blood cells (RBC) [3]; 1.03 mM EGCG): 75 μm^3
- number of Cells, Lyo (Red blood cells (RBC) [3]; 1.03 mM EGCG): 2.83 10^9/ml
- MCV, % of lyo from fresh (Red blood cells (RBC) [3]; 4.12 mM EGCG): 96.59%
- number of Cells, % of lyo cells from fresh (Red blood cells (RBC) [3]; 4.12 mM EGCG): 63.32%
- number of Cells, Fresh (Red blood cells (RBC) [3]; 4.12 mM EGCG in 20% Dextran 40, 0.8% NaCl): 4.58 10^9/ml
- MCV, Fresh (Red blood cells (RBC) [3]; 4.12 mM EGCG): 88 μm^3
- % Hemolysis in Lyo cells (Red blood cells (RBC) [3]; 4.12 mM EGCG): 51.8%
- MCV, Lyo (Red blood cells (RBC) [3]; 4.12 mM EGCG): 85 μm^3
- number of Cells, Lyo (Red blood cells (RBC) [3]; 4.12 mM EGCG): 2.9 10^9/ml
